Test results: patent publication US12435061B2 (priority 2020, dated 2025)
Structures can show the parent of a compound that is named as a salt. Where two headings read alike, the source gives them in different places.

Target: hTRPV3 (Homo sapiens (Human), UniProt Q8NET8)
Experiment: Whole-cell patch clamp, hTRPV3 Phase 1 / Phase 2 currents
Type: cell-based
How it was run: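 Currents are activated by 20 μM 2-APB or by perfusate at 28 °C or warmer, in Ringer's solution, and quantified at ±80 mV.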

[1] = Phase 1 current, human TRPV3, read-out: hTRPV3 (nM) Phase 1
[2] = Phase 1 current, inward, whole-cell patch clamp, read-out: hTRPV3 Patch P1 Inwd
[3] = Phase 1 current, read-out: hTRPV3 (nM) (Phase 1)
[4] = Phase 2 current, inward, whole-cell patch clamp, read-out: hTRPV3 Patch P2 Inwd
[5] = Phase 2 current, read-out: hTRPV3 (nM) (Phase 2)

Chain of hTRPV3 (Q8NET8 whole entry): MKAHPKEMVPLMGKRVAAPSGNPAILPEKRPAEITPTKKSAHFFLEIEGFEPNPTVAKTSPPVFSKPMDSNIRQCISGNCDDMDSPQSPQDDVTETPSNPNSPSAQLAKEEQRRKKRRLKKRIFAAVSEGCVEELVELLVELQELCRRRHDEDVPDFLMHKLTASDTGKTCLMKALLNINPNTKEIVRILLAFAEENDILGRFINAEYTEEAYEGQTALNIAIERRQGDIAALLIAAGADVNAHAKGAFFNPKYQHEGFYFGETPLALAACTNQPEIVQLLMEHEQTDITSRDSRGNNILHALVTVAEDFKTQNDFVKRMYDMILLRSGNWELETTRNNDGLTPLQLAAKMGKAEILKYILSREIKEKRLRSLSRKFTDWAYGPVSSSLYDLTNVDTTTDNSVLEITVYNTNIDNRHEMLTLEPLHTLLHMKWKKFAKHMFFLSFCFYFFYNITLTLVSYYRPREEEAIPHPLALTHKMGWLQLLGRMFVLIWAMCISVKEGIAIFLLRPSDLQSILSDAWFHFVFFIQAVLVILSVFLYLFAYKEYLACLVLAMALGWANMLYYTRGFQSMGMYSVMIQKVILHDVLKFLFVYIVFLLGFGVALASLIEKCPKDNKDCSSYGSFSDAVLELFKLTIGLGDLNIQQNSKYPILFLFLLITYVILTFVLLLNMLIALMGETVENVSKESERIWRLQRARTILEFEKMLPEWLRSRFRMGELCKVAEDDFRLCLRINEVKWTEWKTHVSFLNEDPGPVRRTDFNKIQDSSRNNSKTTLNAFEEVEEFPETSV

Compound	IC50 [1] [nM]	IC50 [2] [nM]	IC50 [3] [nM]	IC50 [4] [nM]	IC50 [5] [nM]
Cc1cccc(CN2CC(c3ccc(Oc4ccccc4C(C)C)cc3C(N)=O)CC2=O)n1 (stereo not drawn) [Compound 2-97, 5-(2-isopropylphenoxy)-2-(1-((6-methylpyridin-2-yl)methyl)-5-oxopyrrolidin-3-yl)benzamide]	> 3200	> 1000			
Cc1ccc(C(O)c2ccc(N3CC[C@H](Oc4ncccc4Cl)C3)c(CO)c2)cc1 (stereo partly drawn) [Compound 1-287, (4-((S)-3-(3-chloropyridin-2-yloxy)pyrrolidin-1-yl)-3-(hydroxymethyl)phenyl)(p-tolyl)methanol]		100 to 1000	674		
Cc1cccnc1O[C@H]1CCN(c2ccc(-c3ccccc3C#N)nc2CO)C1 [Compound 1-192, (S)-2-(6-(hydroxymethyl)-5-(3-(3-methylpyridin-2-yloxy)pyrrolidin-1-yl)pyridin-2-yl)benzonitrile]		> 1000	> 3200	> 1000	~2750
NC(=O)c1cc(-c2ccccc2)cnc1N1CC[C@H](Nc2ccc(C(F)(F)F)cn2)C1 [Compound 1-374, (S)-5-phenyl-2-(3-(5-(trifluoromethyl)pyridin-2-ylamino)pyrrolidin-1-yl)nicotinamide]		> 1000	> 3200	> 1000	> 3200
Cc1ccc(CN2CCC(c3ccc(Oc4ccccc4C(C)C)cc3CO)C2)nc1 (stereo not drawn) [Compound 2-90, (5-(2-isopropylphenoxy)-2-(1-((5-methylpyridin-2-yl)methyl)pyrrolidin-3-yl)phenyl)methanol hydrochloride]	812	100 to 1000			
O=C(NCCO)c1cc(-c2ccccc2Cl)ccc1N1CC[C@H](Oc2ccc(C(F)(F)F)cn2)C1 [Compound 1-156, (S)-2′-chloro-N-(2-hydroxyethyl)-4-(3-(5-(trifluoromethyl)pyridin-2-yloxy)pyrrolidin-1-yl)biphenyl-3-carboxamide]		> 1000	3750		
O=C(O)c1ccccc1N1CC[C@H](Oc2ccc(C(F)(F)F)cn2)C1 [Compound 1-24, (S)-2-(3-(5-(trifluoromethyl)pyridin-2-yloxy)pyrrolidin-1-yl)benzoic acid]		> 1000			
FC(F)(F)c1ccc(O[C@@H]2CCN(c3ccccc3OC3CCCC3)C2)nc1 [Compound 1-36, (R)-2-(1-(2-(cyclopentyloxy)phenyl)pyrrolidin-3-yloxy)-5-(trifluoromethyl)pyridine]		> 1000			
CC(C)c1ccccc1-c1ccc(C2CCN(C(=O)c3ncccc3Cl)C2)c(C(N)=O)c1 (stereo not drawn) [Compound 2-41]	575	100 to 1000			
Cc1cccc(C(=O)N2CCC(c3ccc(Oc4ccccc4C(C)C)cc3CO)C2)n1 (stereo not drawn) [Compound 2-19, (3-(2-(hydroxymethyl)-4-(2-isopropylphenoxy)phenyl)pyrrolidin-1-yl)(6-methylpyridin-2-yl)methanone]	191	10 to 100			
2-(1-o-tolylpyrrolidin-3-yloxy)-5-(trifluoromethyl)pyridine [Compound 1-1]		> 1000		> 1000	
O=C(c1cccc(Cl)c1)c1ccc(CCO)c(N2CC[C@H](Oc3ncccc3Cl)C2)c1 [Compound 1-314, (S)-(3-chlorophenyl)(3-(3-(3-chloropyridin-2-yloxy)pyrrolidin-1-yl)-4-(2-hydroxyethyl)phenyl)methanone]		100 to 1000	229	100 to 1000	307
CC(C)c1ccccc1Oc1ccc(C2CCN(Cc3cccc(Cl)n3)C2)c(CO)c1 (stereo not drawn) [Compound 2-96, (2-(1-((6-chloropyridin-2-yl)methyl)pyrrolidin-3-yl)-5-(2-isopropylphenoxy)phenyl)methanol hydrochloride]	246	100 to 1000			
COc1ccccc1Oc1ccc(N2CC[C@H](Oc3ccc(C)cn3)C2)c(CO)c1 [Compound 1-345, (S)-(5-(2-methoxyphenoxy)-2-(3-(5-methylpyridin-2-yloxy)pyrrolidin-1-yl)phenyl)methanol]		> 1000	~2450		
COCc1ccccc1Oc1ccc(N2CC[C@H](Oc3ncccc3F)C2)c(CCO)c1 [Compound 1-351, (S)-2-(2-(3-(3-fluoropyridin-2-yloxy)pyrrolidin-1-yl)-5-(2-(methoxymethyl)phenoxy)phenyl)ethanol]		100 to 1000	461		
CCc1ccccc1C(O)c1ccc(N2CC[C@H](Oc3ncccc3Cl)C2)c(CO)c1 (stereo partly drawn) [Compound 1-260, (4-((S)-3-(3-chloropyridin-2-yloxy)pyrrolidin-1-yl)-3-(hydroxymethyl)phenyl)(2-ethylphenyl)methanol]		> 1000	3150		
OCc1cc(-c2ccccc2F)ccc1N1CC[C@H](Oc2ccc(C(F)(F)F)cn2)C1 [Compound 1-150, (S)-(2′-fluoro-4-(3-(5-(trifluoromethyl)pyridin-2-yloxy)pyrrolidin-1-yl)biphenyl-3-yl)methanol]		10 to 100	71.7	10 to 100	74.7
OCCc1ccc(C(O)c2ccccc2Cl)cc1N1CC[C@H](Oc2ncccc2Cl)C1 (stereo partly drawn) [Compound 1-354, 2-(4-((2-chlorophenyl)(hydroxy)methyl)-2-((S)-3-(3-chloropyridin-2-yloxy)pyrrolidin-1-yl)phenyl)ethanol]		> 1000	1010		
CC(C)(C)OC(=O)c1ccccc1N1CC[C@H](Oc2ccc(C(F)(F)F)cn2)C1 [Compound 1-54, (S)-tert-butyl 2-(3-(5-(trifluoromethyl)pyridin-2-yloxy)pyrrolidin-1-yl)benzoate]		> 1000			
O=C(c1ccc(C2CCN(C(=O)c3ncccc3Cl)C2)c(CO)c1)c1ccccc1Cl (stereo not drawn) [Compound 2-14, (3-(4-(2-chlorobenzoyl)-2-(hydroxymethyl)phenyl)pyrrolidin-1-yl)(3-chloropyridin-2-yl)methanone]	> 3200	> 1000			
NCc1ccccc1N1CC[C@H](Oc2ccc(C(F)(F)F)cn2)C1 [Compound 1-13, (S)-(2-(3-(5-(trifluoromethyl)pyridin-2-yloxy)pyrrolidin-1-yl)phenyl)methanamine HCl salt]		> 1000		> 1000	
O=C(c1ccc(Cl)cc1)c1ccc(N2CC[C@H](Nc3ccc(F)cn3)C2)c(CCO)c1 [Compound 1-388, (S)-(4-chlorophenyl)(4-(3-(5-fluoropyridin-2-ylamino)pyrrolidin-1-yl)-3-(2-hydroxyethyl)phenyl)methanone]		> 1000	> 3200		
N#Cc1ccc(N2CC[C@@H](Oc3ccc(C(F)(F)F)cn3)C2)c(C(N)=O)c1 [Compound 1-34, (R)-5-cyano-2-(3-(5-(trifluoromethyl)pyridin-2-yloxy)pyrrolidin-1-yl)benzamide]		> 1000			
O=C(c1cc[nH]n1)N1CCC(c2ccc(-c3ccccc3C3CC3)cc2CO)C1 (stereo not drawn) [Compound 2-112, (3-(2′-cyclopropyl-3-(hydroxymethyl)biphenyl-4-yl)pyrrolidin-1-yl)(1H-pyrazol-3-yl)methanone]	98	10 to 100			
COCc1ccccc1Oc1ccc(N2CC[C@H](Oc3ccccn3)C2)c(CCO)c1 [Compound 1-348, (S)-2-(5-(2-(methoxymethyl)phenoxy)-2-(3-(pyridin-2-yloxy)pyrrolidin-1-yl)phenyl) ethanol]		> 1000	> 3200		
